{"source": "paper PMC4892293", "about": "(Drug Design, Development and Therapy, 2016)", "biological_target": "T1, human recombinant PPARγ (Homo sapiens, UniProt P37231)", "T1 sequence (P37231 1-505)": "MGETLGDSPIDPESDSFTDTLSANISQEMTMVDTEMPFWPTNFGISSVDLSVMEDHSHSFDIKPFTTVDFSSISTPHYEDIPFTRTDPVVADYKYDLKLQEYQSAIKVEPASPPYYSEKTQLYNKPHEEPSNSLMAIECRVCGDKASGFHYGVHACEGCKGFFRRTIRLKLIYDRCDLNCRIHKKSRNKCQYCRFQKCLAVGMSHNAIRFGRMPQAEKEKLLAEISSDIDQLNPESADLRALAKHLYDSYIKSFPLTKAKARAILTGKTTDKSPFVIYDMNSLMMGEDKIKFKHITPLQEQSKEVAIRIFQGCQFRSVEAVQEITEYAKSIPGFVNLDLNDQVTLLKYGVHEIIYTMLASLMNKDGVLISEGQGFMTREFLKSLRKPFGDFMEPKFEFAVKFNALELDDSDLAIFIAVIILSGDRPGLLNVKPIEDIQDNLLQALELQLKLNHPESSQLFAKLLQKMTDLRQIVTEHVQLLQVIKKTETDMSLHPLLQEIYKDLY", "assay": "FP-based PPARγ ligand screening assay", "type": "binding", "settings": "concentration of 10.0 μM; Figure 2", "data": [{"substance": "4-((5-(4-Chlorophenyl)-4-methylthiazol-2-yl)amino)-4-oxobutanoic acid [Compound 4f]", "values": [{"measurement": "agonistic activity in primary FP screening", "result": "unable to promote agonistic activity"}]}]}
